pIC50: −log10 of the molar value. Where “and” joins values, the source holds several entries; their conditions need not be identical. Equal entries are not always repeated.
Molecular target: Reverse transcriptase protein (Human immunodeficiency virus 1, UniProt Q9WJQ1)
Assay: HIV-1 RT Inhibitory Assay
Details: 25 °C
Procedure: The final pH of the reactions was 7.7. After extension for 3 min, the reactions were stopped by adding 12.5 μL of 2× gel loading buffer and the samples were resolved in a 16% denaturing polyacrylamide−7 M urea gel.

Cc1ccnc2c1NC(=O)c1cccnc1N2C1CC1 [BI-RG-587]
pIC50: 4.80 and 5.37
